The source of these data is article PMC10975076, “Trypanocidal and Anti-Inflammatory Effects of Three ent-Kaurane Diterpenoids from Gymnocoronis spilanthoides var. subcordata (Asteraceae)” (Pharmaceutics, 2024).

Series [1] relates to T. cruzi epimastigotes (RA strain). Put plainly: In vitro activity against epimastigotes, [3H]-thymidine uptake assay. Type of series: cell-based. To be noted: Trypanosoma cruzi.
For series [2], the system named is T. cruzi amastigotes (Tulahuen strain expressing β-galactosidase). Put plainly: In vitro activity against amastigotes in infected Vero cells, β-galactosidase/CPRG readout. Type of series: cell-based. To be noted: Trypanosoma cruzi, 120 h, intracellular amastigotes in Vero cells, 5 days. How it is done: Cultures of Trypanosoma cruzi epimastigotes (RA strain) were maintained through weekly passages in LIT medium supplemented with 10% fetal bovine serum at 28 °C. Trypanosoma cruzi bloodstream trypomastigotes (RA strain) were obtained from infected CF1 mice by cardiac puncture 15 days after infection at the peak of parasitemia while transfected trypomastigotes expressing β-galactosidase (Clone C4, e Tulahuen strain) were obtained from infected Vero cells.
The activity of compounds 1–3 on the intracellular forms of T. cruzi was evaluated. Vero cells (5 × 10^3/well) were infected with culture-derived trypomastigotes of T. cruzi from the Tulahuen strain expressing β-galactosidase (MOI: 10). After an O.N. incubation at 37 °C, and 5% CO2, non-infecting parasites were washed out and infected cells were incubated with increasing concentrations of the compounds (0.001–50 µg/mL). Cells treated with DMSO or benznidazole and non-infected cells were included as controls. After 5 days, cells were lysed with 1% Nonidet P-40, and chlorophenol red-β-D-galactopyranoside (CPRG) (100 μM) was added as a substrate for the β-galactosidase enzyme. The plate was then incubated for 4 h at 37 °C and β-galactosidase activity was determined by measuring the absorbance at 570 nm. The percentage of inhibition for each concentration of compounds was calculated as: 100 − {[(absorbance of treated infected cells)/(absorbance of untreated infected cells)] × 100}.

A short description of series [3]: Cytotoxicity assay on splenocytes, propidium iodide flow cytometry. Type of series: cell-based, mice. The conditions noted are these: BALB/c, mouse, murine splenocytes. How it is done:
The cytotoxicity of the isolated compounds was evaluated using splenocytes obtained from BALB/c mice. Primary cell cultures (1.5 × 10^5) were incubated with different concentrations of the isolated phytochemicals (5–200 μg/mL) in RPMI medium supplemented with 10% fetal bovine serum. After 48 h of incubation at 37 °C (5% CO2), the cells were harvested, washed once with PBS and stained with 2.5 μg/mL propidium iodide (PI) for 5 min at room temperature. Subsequently, cell death was assessed via flow cytometry using a BD FACSaria II cytometer. Cells incubated with DMSO were used as 100% viability control, and the death percentage was calculated according to the following formula: {1 − [(% PI^− cells treated)/(% PI^− cells of the viability control)] × 100}.

The subject of series [4] is T. cruzi epimastigotes. Put plainly: Transmission electron microscopy of treated epimastigotes. Type of series: cell-based, Trypanosoma cruzi. To be noted: 20 µM. How it is done: All procedures were carried out according to Brengio et al.. Epimastigotes from T. cruzi were treated with 20 µM of compound 1 for either 48 h or 72 h. Then, the parasites were centrifuged at 1000× g for 10 min and fixed with 2.5% glutaraldehyde. Subsequently, they were washed three times with PBS and postfixed overnight with 2% OsO4. After washing twice with PBS, cells were stained with 1% uranyl acetate. The samples were dehydrated sequentially in ethanol and acetone and embedded in Epon 812. Ultrathin slices of 60 nm were obtained using an automatic Leica-ultracut R ultramicrotome and observed with a Microscope Zeiss EM900 (Zeiss, Oberkochen, Germany).

In series [5] the test system is type-I Interferon (IFN) pathway, RAW-Lucia ISG cells. The series is described as follows: Type-I interferon reporter assay in RAW-Lucia ISG cells, Lucia luciferase. Type of series: cell-based, murine. To be noted: 24 h. How it is done: The effect of compound 1 on a type-I Interferon (IFN) reporter cell line stimulated with LPS was studied. RAW-Lucia cells express the Lucia luciferase enzyme under the control of the ISG54 promoter that responds to an IFN-stimulated response element, which is activated by several Interferon Regulatory Factors (IRFs).
RAW-Lucia ISG cells I (InvivoGen, San Diego, CA, USA) (100 μL) were cultured (100,000 cells/well) with DMEM at 37 °C in a 5% CO2 atmosphere to be stimulated with LPS (0.5 µg/mL) or a combination of LPS and compound 1 (1 and 10 µg/mL). Unstimulated cells were included as controls. After a 24 h incubation, the supernatants of each well were collected in order to quantify the luciferase activity by measuring the luminescence generated after the addition of the QUANTI-Luc reagent (InvivoGen) according to the manufacturer’s instructions with a PerkinElmer Victor3 luminometer.
A general note: In a reporter assay the amount or activity of a reporter protein is the signal.

For series [6], the system named is NF-kB, RAW-Blue cells. The series is described as follows: NF-kB reporter assay in RAW-Blue cells, SEAP activity. Type of series: cell-based, murine. To be noted: 24 h. How it is done:
The effect of compound 1 was evaluated on a cell line that secretes alkaline phosphatase as a surrogate marker for the secretion of NF-kB. RAW-Blue cells (InvivoGen) (100 μL) were seeded in a 96-well plate (100,000 cells/well) with DMEM at 37 °C in a 5% CO2 atmosphere. […] Untreated cells were included as controls. The supernatants were collected and absorbance at 620–655 nm was measured after the addition of the Quanti-Blue reagent (InvivoGen) in a microplate reader. Levels of NF-kB were calculated following the manufacturer’s instructions.

Series [7] has as its system nitric oxide production, Raw-Blue cells. Put plainly: Nitric oxide production, Griess reaction on RAW-Blue supernatants. Type of series: cell-based, murine. On the procedure:
The Griess reaction assay was performed to determine the effect of compound 1 on Nitric Oxide production. The same supernatant samples obtained in Section 2.8.2 (50 µL) were combined with 100 µL of Griess reagent. After incubation at room temperature for 30 min, absorbance was measured at 540 nm. A calibration curve was constructed with 1–250 µM of […] to extrapolate the nitrite concentration in the tested samples.
In general terms: Nitrite, measured by Griess reagent, commonly stands in for NO production.

Series [8] has as its system TNF secretion, Raw-Blue macrophages. Put plainly: TNF in RAW-Blue supernatants, capture ELISA. Type of series: cell-based, murine. To be noted: 24 h. How it is done: (§1) The production of the cytokines IL-10 and TNF was also determined in cell supernatant from these samples with an ELISA assay (R&D System, Minneapolis, MN, USA; BD Pharmingen, Franklin Lakes, NJ, USA).
The test system of series [9] is IL-10 production, Raw-Blue macrophages. Put plainly: IL-10 in RAW-Blue supernatants, ELISA. Type of series: cell-based, murine. The conditions noted are these: increasing concentrations (1, 10 µg/mL), 24 h, dose-dependent. How it is done: as §1
For orientation: ELISA stands for enzyme-linked immunosorbent assay.

The test system of series [10] is T. cruzi (RA strain) infection in BALB/c mice. Put plainly: In vivo trypanocidal activity in murine model of T. cruzi infection. Details: species or system Trypanosoma cruzi. The conditions noted are these: for Hazard ratio (logrank) vs vehicle: Kaplan–Meier survival; for decrease in the area under the parasitemia curve (AUC): fold vs untreated control group.
Series [11] has as its system iNOS expression and NO production. Also on record: method as in doi:10.7324/JAPS.2023.95766. The conditions noted are these: cited from earlier work.
The mark [12] stands for this setting: T. cruzi epimastigotes, 72 h incubation, read-out: IC50 ± SEM Epimastigotes.
[13] abbreviates: T. cruzi epimastigotes, 72 h incubation, value in brackets, read-out: IC50 Epimastigotes (converted).
The mark [14] stands for this setting: read-out: IC50 ± SEM Amastigotes.
[15] abbreviates: value in brackets, read-out: IC50 Amastigotes (converted).
The mark [16] stands for this setting: primary splenocytes, read-out: CC50 µg/mL ± SEM.
The mark [17] stands for this setting: primary splenocytes, read-out: CC50.
Where [18] appears, read: LPS 0.5 µg/mL, 1 or 10 µg/mL compound.
Setting [19] is: infected BALB/c mice, 1 mg/kg/day i.p. each for 5 days.

Like-named read-outs stand apart in the source and are kept apart here.

In the case of `C=C1C(=O)[C@@]23CC[C@@H]4[C@](C)(C(=O)O)CCC[C@@]4(C)[C@]2(O)[C@@H](O)C[C@@H]1C3` (single isomer, unassigned; ent-9) [Compound 1, ent-9α,11α-dihydroxy-15-oxo-kaur-16-en-19-oic acid], the IC50 in series [1] (setting [12]) is 3.7 ± 0.5 µg/mL; in [1] (setting [13]), 10.6 µM; in [2] (setting [14]), 2.1 ± 0.3 µg/mL; in series [2] (setting [15]) it was 6.1 µM. Further, the CC50 at 48 h in [3] (setting [16]) stood at 112 ± 3.4 µg/mL; in [3] (setting [17]), 322 µM. In addition, the “ultrastructural effect on epimastigotes (TEM)” value is listed as “formation of abnormal cytosolic membranous structures” in series [4] (48 h) and “Abnormal cytosolic membranous structures” in series [4] (72 h). The “Lucia luciferase activity after LPS stimulation” value in series [5] (setting [18]) was “reduction in enzymatic activity”. Moreover, in series [5] (unstimulated control cells, 1 or 10 µg/mL), the “basal Lucia luciferase activity” value is given as “did not affect the basal levels of Lucia luciferase activity”. Moreover, the “NF-kB activation by TLR agonists (SEAP activity)” value in [6] (CpG 100 µg/mL, Poly(I:C) 100 µg/mL or LPS 0.5 µg/mL, compound 2.5 µg/mL) is reported as “significantly inhibit NF-kB activation”. Also, the “LPS-mediated activation of NF-kB (SEAP activity)” value in [6] (setting [18]) is recorded as “dose-dependent inhibition”. Besides, the “nitric oxide production (nitrite) with TLR ligands” value in series [7] (CpG 100 µg/mL, Poly(I:C) 100 µg/mL or LPS 0.5 µg/mL, compound 2.5 µg/mL, 24 h) is listed as “significant decrease in nitric oxide production”. Moreover, the “nitric oxide production (nitrite levels) after LPS” value in series [7] (LPS-stimulated Raw-Blue macrophages, dose-dependent) is listed as “significantly inhibited nitric oxide production”. Also, in series [8] (LPS 0.5 µg/mL, 1 and 10 µg/mL compound), the “TNF levels after LPS stimulation” value is given as “significantly reduced”. Also, the “basal levels of TNF” value in [8] (without LPS, increasing concentrations (1, 10 µg/mL)) is given as “significant decrease in the basal levels of TNF”. Moreover, in series [9], the “IL-10 production and secretion” value is “increase in the production and secretion of IL-10”. The “Hazard ratio (logrank) vs vehicle” value in [10] (1 mg/kg/day i.p. for 5 days) is given as 0.9. Moreover, in series [10] (setting [19]), the “decrease in the area under the parasitemia curve (AUC)” value is given as “two-fold”. For the same compound, the parasitemia levels result in series [10] (infected BALB/c mice, 1 mg/kg/day i.p. for 5 days, vs vehicle) is given as “significant decrease in parasitemia levels”. Further, the “iNOS expression and NO production in vitro” value in series [11] was “inhibit iNOS expression and NO production”.

For the compound `C=C1C(=O)[C@@]23CC[C@H]4[C@@](C)(CCC[C@@]4(C)C(=O)O)[C@@H]2[C@@H](O)C[C@@H]1C3` (single isomer, unassigned; ent-11) [Compound 3, ent-11α-hydroxy-15-oxo-kaur-16-en-19-oic acid], the 50% inhibitory concentration (IC50) was 1.6 ± 0.6 µg/mL in series [1] (setting [12]), 4.8 µM in series [1] (setting [13]), 20.1 ± 8.2 µg/mL in [2] (setting [14]) and 60.6 µM in [2] (setting [15]). For the same compound, the CC50 at 48 h was determined as 4.9 ± 1.6 µg/mL in [3] (read-out: CC50 µg/mL ± SEM) and 14.8 µM in series [3] (read-out: CC50).

Take `O=C(Cn1ccnc1[N+](=O)[O-])NCc1ccccc1` [Benznidazole, benznidazole, reference compound]: the half-inhibitory concentration (IC50) in [1] (72 h, read-out: IC50 Epimastigotes) is 4.2 µM; in series [1] (72 h, read-out: IC50 ± SEM Epimastigotes), 1.08 ± 0.2 µg/mL; in series [2] (setting [14]), 0.5 ± 0.04 µg/mL; in series [2] (setting [15]), 1.9 µM. Further, the CC50 at 48 h was 45.3 ± 1.8 µg/mL in series [3] (setting [16]) and 81.5 µM in series [3] (setting [17]). Also, the “mice remaining alive at the end of the acute infection phase” value in [10] (1 mg/kg/day i.p. each for 5 days) is “none”. Further, the “Hazard ratio (logrank) vs vehicle” value in series [10] (1 mg/kg/day i.p. for 5 days) is 1.1. Also, the “decrease in the area under the parasitemia curve (AUC)” value in series [10] (setting [19]) is recorded as 1.6.

As for `C[C@H]1C(=O)[C@@]23CC[C@H]4[C@@](C)(CCC[C@@]4(C)C(=O)O)[C@@H]2[C@@H](O)C[C@@H]1C3` [Compound 2, (16R)-ent-11α-hydroxy-15-oxokauran-19-oic acid], the half-inhibitory concentration (IC50) in [1] (setting [12]) was 5.2 ± 0.3 µg/mL; in series [1] (setting [13]), 15.9 µM; in series [2] (setting [14]) it was 6.5 ± 0.2 µg/mL; in series [2] (setting [15]), 19.5 µM. Besides, the values for the CC50 at 48 h in series [3] (setting [16]) and in [3] (setting [17]) were 7.8 ± 0.2 µg/mL and 23.3 µM, respectively.

In general, IC50 refers to the point on the concentration scale where inhibition reaches its midpoint.
